Measured values: patent publication US20090280069A1, “PROGUANIL TO TREAT SKIN/MUCOSAL DISEASES” (Tolmar, Inc., priority 2008, published 2009)

Key:
[1] = system: Streptococcus equi subsp. equi ATCC 33398; assay: time kill assay, S. equi (Group C); format: cell-based
Method: Streptococcus equi (Group C) infections can lead to skin diseases such as erysipelas and cellulitis. A time kill assay was used to test the effects of varying concentrations of proguanil on a culture of Streptococcus equi subsp. equi ATCC 33398. An inoculum of S. equi was prepared and inoculated in vials containing Mueller Hinton II broth and proguanil concentrations of 160, 80, 16, 8, and 1.6 μg/ml. A growth control using phosphate buffered saline A (PBSA) plus Mueller Hinton II broth was used in place of the drug because it has no antimicrobial effect. DGME was the solvent used to dissolve the proguanil, accordingly, 10% DGME was used as the solvent control. These inoculated broth solutions were then allowed to incubate for a period of 72 hours. Samples were taken at 0, 4, 24, 48 and 72 hours and spiral plated so the CFU/ml could be calculated. In the experiments, the effects of proguanil on the S. equi were observed.

[2] = system: Candida albicans ATCC 10231; assay: time kill assay, C. albicans; format: cell-based
Method: A time kill assay was used to test the effects of varying concentrations of proguanil on a culture of Candida albicans ATCC 10231. An inoculum of C. albicans was prepared and inoculated in vials containing Muller Hinton II broth and proguanil concentrations of 1280, 640, 480, 320, 160 μg/ml. A growth control using phosphate buffered saline A (PBSA) plus Mueller Hinton II broth was used in place of the drug because it has no antimicrobial effect. DGME was the solvent used to dissolve the proguanil. Accordingly, 10% DGME was used as the solvent control. These inoculated broth solutions were then allowed to incubate for a period of 72 hours. Samples were taken at 0, 4, 24, 48 and 72 hours and spiral plated so the CFU/ml could be calculated.

[3] = system: Staphylococcus aureus ATCC 6538-P; assay: time kill assay, S. aureus; format: cell-based
Method: Staphylococcus aureus infections can lead to many skin diseases. Impetigo, furuncles, folliculitis, and carbuncles are all diseases caused by an infection of S. aureus. A microbiological study used a time kill assay with Staphylococcus aureus ATCC 6538-P as an indicator of the antibacterial activity of proguanil. […] A broth only control as well as a solvent 10% DGME control were added to the vials so that the total test volume was 15 ml. One hundred μl of a freshly grown suspension of the Staphylococcus aureus was then added at time zero so that the initial bacterial suspension was between 10^3 and 10^4 CFU/ml. All test and control suspensions were then incubated under aerobic conditions at 35° C. […] These plates were incubated aerobically at 35° C. for 1-3 days. Surviving colonies were then counted and the CFU/ml of test and control suspensions calculated and graphed.

[4] = system: C. minutissimum ATCC 23348; assay: time kill assay, C. minutissimum; format: cell-based, Corynebacterium minutissimum
Method: Corynebacterium minutissimum is the causative agent of erythrasma, a superficial infection of the skin characterized by slowly spreading pruritic, reddish-brown macular patches. A microbiological study used a time kill assay with C. minutissimum ATCC 23348 as an indicator of the antibacterial activity of proguanil. […] A broth only control as well as a solvent 10% DGME control were added to the vials so that the total test volume was 15 ml. One hundred μl of a freshly grown suspension of the C. minutissimum was then added at time zero so that the initial bacterial suspension was between 10^7 and 10^8 CFU/ml. All test and control suspensions were then incubated under aerobic conditions at 35° C. Aliquots of the test and control suspensions were removed at 24, 48, and 72 hours and plated onto tryptic soy agar in triplicate using a spiral plater. These plates were incubated aerobically at 35° C. for 1-3 days. Surviving colonies were then counted and the CFU/ml of test and control suspensions calculated and graphed. The effects of proguanil on the C. minutissimum were observed.

[5] = system: Propionibacterium acnes ATCC 6919; assay: time kill assay, P. acnes; format: cell-based
Method: A microbiological study used a time kill assay with Propionibacterium acnes ATCC 6919 as an indicator of the antibacterial activity of proguanil. […] A broth only control as well as a solvent 10% DGME control were added to the vials so that the total test volume was 15 ml. One hundred μl of a freshly grown suspension of P. acnes 6919 was then added at time zero so that the initial bacterial suspension was between 10^7 and 10^8 CFU/ml. All test and control suspensions were then incubated under anaerobic conditions at 35° C. Aliquots of the test and control suspensions were removed at 24, 48, 72, and 96 hours and plated onto tryptic soy agar in triplicate using a spiral plater. These plates were incubated anaerobically at 35° C. for 3-5 days. Surviving P. acnes colonies were then counted and the CFU/ml of test and control suspensions calculated and graphed.

[6] = system: Streptococcus agalactiae ATCC 49446; assay: time kill assay, S. agalactiae (Group B); format: cell-based
Method: Streptococcus agalactiae (Group B) infections can lead to skin diseases such as erysipelas and cellulitis. A time kill assay was used to test the effects of varying concentrations of proguanil on a culture of Streptococcus agalactiae ATCC 49446. An inoculum of S. agalactiae was prepared and inoculated in vials containing Muller Hinton II broth and proguanil concentrations of 160, 80, 16, 8, and 1.6 μg/ml. A growth control using phosphate buffered saline A (PBSA) plus Mueller Hinton II broth was used in place of the drug because it has no antimicrobial effect. DGME was the solvent used to dissolve the proguanil, accordingly, 10% DGME was used as the solvent control. These inoculated broth solutions were then allowed to incubate for a period of 72 hours. Samples were taken at 0, 4, 24, 48 and 72 hours and spiral plated so the CFU/ml could be calculated. The effects of proguanil on the S. agalactiae were observed.

[7] = all other concentrations (16, 8, 1.6 μg/ml)

`CC(C)NC(=N)NC(=N)Nc1ccc(Cl)cc1` [Proguanil, N-(4-Chlorophenyl)-N′-(1-methylethyl)imidodicarbonimidic diamide] was tested, and the “effect on CFU/ml” value ([1]; 80 μg/ml, time zero to 72 hours) was “only a slight increase in CFU/ml”, the “effect on the bacteria” value ([1]; 160 μg/ml) was “strong inhibition and killing” and the CFU/ml ([1]; 160 μg/ml, T=48 and 72 hours) was 0 CFU/ml. The “Relative Sensitivity (Compared to Other Strains Tested)” value (from here on “Relative Sensitivity”) ([1]; Streptococcus equi subspecies equi (Group C) ATCC 33398) was “Sensitive”, the “Approximate Inhibitory Level” value ([1]; Streptococcus equi subspecies equi (Group C) ATCC 33398, level at which partial or total inhibition of growth is observed) was 80 to 160 µg/mL and the “effect on CFU/ml” value [1, 7] was “very similar and near the CFU/ml of the Mueller Hinton II broth control”. For the same molecule, the CFU/ml ([2]; 160 μg/ml, static from 24 to 72 hours) was 80 CFU/ml, the “effect on C. albicans” value ([2]; 320 μg/ml, 24 hour time point and later) was “completely killed” and the CFU counts ([2]; 1280 μg/ml, all time points 0-72 hours) was 0 CFU. The “effect on the yeast” value ([2]; 640 and 480 μg/ml, 4-72 hour time points) was “killing all of the yeast”, the “Relative Sensitivity” value ([2]; Candida albicans) was “Moderately” and the “Approximate Inhibitory Level” value ([2]; Candida albicans, level at which partial or total inhibition of growth is observed) was 320 µg/mL. For the same molecule, the “inhibition of the bacteria” value ([3]; 160 μg/ml, all time points, similar to the DGME solvent control) was “slight inhibition”, the “kill of S. aureus” value ([3]; 320 μg/ml, by the 24 hour time point and later through 72 hours) was “complete kill” and the “kill of the bacteria” value ([3]; 1280, 640, and 480 μg/ml, by the 4 hour time point and later through 72 hours) was “complete kill”. The “Relative Sensitivity” value ([3]; Staphylococcus aureus ATCC-6538P) was “Moderately”, the “Approximate Inhibitory Level” value ([3]; Staphylococcus aureus ATCC-6538P, level at which partial or total inhibition of growth is observed) was 320 µg/mL and the “effect on CFU/ml” value ([4]; 160 and 80 μg/ml, at 4 hours, 160 greater effect than 80) was “reduced the CFU/ml”. The CFU/ml ([4]; 160 and 80 μg/ml, by the 24 hour time point) was 0 CFU/ml, the “Relative Sensitivity” value ([4]; Corynebacterium minutissimum (ATCC 23348)) was “Very Sensitive” and the “Approximate Inhibitory Level” value ([4]; Corynebacterium minutissimum (ATCC 23348), level at which partial or total inhibition of growth is observed) was 80 µg/mL. For the same molecule, the “effect compared to controls” value ([4]; all other test concentrations (1.6, 8, 16 μg/ml)) was “little effect”, the bacteria eliminated ([5]; 160 μg/ml, by 24 hours) was 97-100% and the “Relative Sensitivity” value ([5]; Propionibacterium acnes ATCC 6919) was “Sensitive”. The “Approximate Inhibitory Level” value ([5]; Propionibacterium acnes ATCC 6919, level at which partial or total inhibition of growth is observed) was 80 to 160 µg/mL, the “killing of P. acnes” value ([5]; between 0.16 and 16 μg/ml) was “not very effective” and the “effect on CFU/ml” value ([6]; 80 μg/ml) was “slight effect”. For the same molecule, the “effect on the bacteria” value ([6]; 160 μg/ml) was “dramatic inhibition”, the CFU/ml ([6]; 160 μg/ml, T=48 and 72 hours) was 0 CFU/ml and the “Relative Sensitivity” value ([6]; Streptococcus agalactiae (Group B) ATCC 49446) was “Moderately”. For the same molecule, the “Approximate Inhibitory Level” value ([6]; Streptococcus agalactiae (Group B) ATCC 49446, level at which partial or total inhibition of growth is observed) was 160 µg/mL and the “effect on CFU/ml” value [6, 7] was “very similar and near the CFU/ml of the Mueller Hinton II broth control”.
